According to US6890951B2, “Treatment of addiction and addiction-related behavior” (Brookhaven Science Associates LLC, priority 1998, dated 2005):
“Also recorded” adds a separate entry of the source.

Tests used:
[1] = tested on: extracellular DA in the NACC; experiment: In vivo microdialysis: nicotine-induced increases in extracellular NACC DA; parameters: species or system rats
Source text: All animals were used under an IACUC-approved protocol and with strict adherence to the NIH guidelines. Adult male Sprague-Dawley rats (200-300 g, Taconic Farms), housed in the animals care facility under 12:12 light/dark conditions, were placed into 6 groups (n=5-9), anesthetized and siliconized guide cannulae were stereotactically implanted into the right NACC (2.0 mm anterior and 1.0 mm lateral to bregms, and 7.0 mm ventral to the cortical surface) at least 4 days prior to study. […] Animals were placed in bowls, and probes were inserted and flushed with ACSF overnight. On the day of the study, a minimum of three samples were injected to determine baseline stability. Samples were collected for 20 min. and injected on-line (CMA/160, BAS). The average Dopamine concentration of these three stable samples was defined as control (100%), and all subsequent treatment values were transformed to a percentage of that control. […] The high performance liquid chromatography (HPLC) system consists of a BAS reverse-phase column (3.0 μC-18), a BAS LC-4C electrochemical transducer with a dual/glassy carbon electrode set at 650 mV, a computer that analyzes data on-line using a commercial software package (Chromograph Bioanalytical Systems), and a dual pen chart recorder. The mobile phase (flow rate 1.0 ml/min) consisted of 7.0% methanol, 50 mM sodium phosphate monobasic, 1.0 mM sodium octyl sulfate, and 0.1 mm EDNA, pH 4.0. […] Upon completion of the study, animals were decapitated and frozen sections were obtained for probe placement verification.
The open circles are control animals.
In all studies, animals were placed in the microdialysis bowls the night before the experiment and artificial cerebrospinal fluid (ACSF) was perfused through the microdialysis probes at a flow rate of 2.0 μl/min. At the end of each study, animals were sacrificed and their brains were removed and sectioned for probe placement verification.

[2] = tested on: extracellular DA in the NACC; experiment: Microdialysis: methamphetamine-induced increases in NACC DA; assay type: in vivo, rats; conditions: Rattus norvegicus
Source text: All animals were used under an IACUC-approved protocol and with strict adherence to the NIH guidelines. Adult male Sprague-Dawley rats (200-300 g, Taconic Farms), housed in the animals care facility under 12:12 light/dark conditions, were placed into 6 groups (n=5-9), anesthetized and siliconized guide cannulae were stereotactically implanted into the right NACC (2.0 mm anterior and 1.0 mm lateral to bregms, and 7.0 mm ventral to the cortical surface) at least 4 days prior to study. Microdialysis probes (2.0 mm, Bioanalytical Systems, BAS, West Lafayette, Ind.) were positioned within the guide cannulae and artificial cerebrospinal fluid (ACSF, 155.0 mM NA^−, 1.1 mM Ca^2−, 2.9 mM K^−, 132.76 mM Cl^−, and 0.83 mM Mg^2−) was administered through the probe using a CMA/100 microinfusion pump (BAS) at a flow rate of 2.0 μl/min. Animals were placed in bowls, and probes were inserted and flushed with ACSF overnight. On the day of the study, a minimum of three samples were injected to determine baseline stability. Samples were collected for 20 min. and injected on-line (CMA/160, BAS). The average Dopamine concentration of these three stable samples was defined as control (100%), and all subsequent treatment values were transformed to a percentage of that control. […] The high performance liquid chromatography (HPLC) system consists of a BAS reverse-phase column (3.0 μC-18), a BAS LC-4C electrochemical transducer with a dual/glassy carbon electrode set at 650 mV, a computer that analyzes data on-line using a commercial software package (Chromograph Bioanalytical Systems), and a dual pen chart recorder. The mobile phase (flow rate 1.0 ml/min) consisted of 7.0% methanol, 50 mM sodium phosphate monobasic, 1.0 mM sodium octyl sulfate, and 0.1 mm […], pH 4.0. DA eluted at 7.5 min. Upon completion of the study, animals were decapitated and frozen sections were obtained for probe placement verification.
Methamphetamine at a dose of 1.25 mg/kg i.p. and 2.5 mg/kg i.p. was administered to the animals. It was noted that methamphetamine elevated extracellular DA concentrations in the NACC by approximately 2500% over basal levels, 100 minutes following administration of 2.5 mg/kg and approximately 1500% over basal levels following administration of 1.25 mg/kg (FIG. 6). DA returned to basal levels approximately 200 minutes following administration.

[3] = tested on: NAc DA; experiment: Microdialysis: cocaine/heroin (speedball) induced increases in NAc DA; assay type: in vivo, rats
Description: In vivo microdialysis studies were performed using adult male Sprague-Dawley rats (Taconic Farms) as detailed previously (Morgan and Dewey, 1998). Cocaine, a dopamine reuptake inhibitor, (n=6-8) was administered (i.p.) at a dose of 20 mg/kg while heroin, an indirect dopamine releaser, (n=6-8) was administered (i.p.) at a dose of 0.5 mg/kg. In studies designed to investigate the synergistic effects of a cocaine/heroin combination (n=6-8), both drugs were administered at the identical dose used in the single drug studies. Alone cocaine produced a marked elevation in extracellular DA of approximately 380% above baseline values, 60 minutes following administration. DA returned to baseline within 120 minutes. In contrast, heroin increased NAc DA by only 70%, 60 minutes following administration, returning to baseline within 140 minutes. However, when combined, the two drugs produced an increase in NAc DA of approximately 1000%, 180 minutes following administration that had not returned to baseline values by 200 minutes after reaching peak values (FIG. 9).

[4] = tested on: male F344 rats; conditions: cited from earlier work
[5] = tested on: Sprague-Dawley rats; experiment: Gross locomotor activity during microdialysis (infrared motion sensor); conditions: GVG, during the 2.5 hour pretreatment interval
Source text: In parallel to the quantitative estimates of dopamine concentration, the locomotor response of these animals to stimulant administration was simultaneously quantified using an infrared motion sensor. This infrared optical proximity detector monitored movement of the gimbaled arm, an integral component of the freely moving system. The digital output of the detector was interfaced with an IBM personal computer and programmed to count both positive and negative arm deflections. […] Locomotor activity was then expressed as the number of deflections per sample interval.

For `C=CC(N)CCC(=O)O` (racemic) [GVG, 4-amino-5-hexanoic acid], the “basal DA levels prior to nicotine administration” value ([1]; GVG 75 mg/kg) was “no effect on basal DA levels”, the “effect on nicotine-induced increases in DA” value ([1]; GVG 75 mg/kg i.p. 2.5 hours before nicotine 0.4 mg/kg) was “no effect” and the “effect on nicotine-induced increases in DA” value ([1]; GVG 100 mg/kg i.p. 2.5 hours before nicotine 0.4 mg/kg) was “completely abolished; also recorded: completely blocked”. The “effect on nicotine-induced increases in DA” value ([1]; GVG 100 mg/kg i.p. 2.5 hours before nicotine 0.4 mg/kg, listed as vigabatrin) was “completely blocked”, the “effect on nicotine-induced increases in DA” value ([1]; GVG 150 mg/kg i.p. 2.5 hours before nicotine) was “blocks; also recorded: completely abolished” and the “basal DA levels prior to nicotine administration” value ([1]; GVG 90, 100 or 150 mg/kg) was “lowered basal DA levels”. The inhibition at 90 mg/kg ([1]; Rattus norvegicus, ip, GVG 90 mg/kg i.p. 2.5 hours before nicotine 0.4 mg/kg) was roughly 50%, the “effect on nicotine-induced increases in extracellular DA” value ([1]; chronically nicotine treated, GVG 100 mg/kg 2.5 hours prior to nicotine) was “completely abolished” and the “nicotine-induced increase of extracellular DA above baseline” value ([1]; chronically nicotine treated, GVG 100 mg/kg 12 hours prior to challenge) was “approximately 25%”. For the same compound, the inhibition at 300 mg/kg [2] was roughly 38%, the inhibition at 600 mg/kg [2] was roughly 58% and the “temporal aspects of the response to cocaine/heroin” value ([3]; GVG 300 mg/kg i.p.) was “did not effect the temporal aspects of the response”. The “increase in NAc DA after cocaine/heroin challenge” value ([3]; GVG 300 mg/kg i.p. 2.5 hours prior to challenge, 180 minutes following challenge) was “approximately 500%”, the “synergistic effects of the combined drug challenge (absolute magnitude)” value ([3]; GVG 300 mg/kg i.p. 2.5 hours prior to cocaine/heroin) was “completely abolished the synergistic effects” and the “decrease in brain stimulation reward thresholds produced by 2.5 and 5 mg/kg i.p. cocaine” value ([4]; GVG 400 mg/kg) was “significantly antagonized”. For the same compound, the “brain stimulation reward thresholds” value ([4]; GVG alone) was “dose-dependent increase” and the gross locomotor activity [5] was “did not alter gross locomotor activity”.
